17 compounds from ChEMBL document CHEMBL1149619, “E,E,E-1-(4-Arylamino-4-oxo-2-butenoyl)-3,5-bis(arylidene)-4-piperidones: a topographical study of some novel potent cytotoxins” (Bioorg Med Chem, 2007) can be followed below.

For series [1], the system named is L1210. Briefly: Cytotoxicity against mouse L1210 cells. The format is functional, cell-based.
Series [2] relates to Aspergillus fumigatus. Briefly: Antifungal activity against Aspergillus fumigatus F69827. The format is functional.
Series [3] deals with Aspergillus fumigatus. Briefly: Antifungal activity against Aspergillus fumigatus M44251. The class given is functional.
The test system of series [4] is Aspergillus fumigatus. Briefly: Antifungal activity against Aspergillus fumigatus ATCC 280997. The class given is functional.
The nature of series [5]: Cytotoxicity against human colon cancer cells. To be noted: Cancer cell lines. The class given is functional.
In series [6] the test system is Aspergillus fumigatus. Kind of series: Antifungal activity against Aspergillus fumigatus ATCC 280996. The class given is functional.
The test system of series [7] is Aspergillus fumigatus. Briefly: Antifungal activity against Aspergillus fumigatus ATCC 280995. The class given is functional.
Series [8] concerns Mus musculus. Kind of series: Neurotoxicity in mouse assessed as mortality up to 300 mg/kg after 4 hrs. The class given is toxicity, organism-based. Also noted: dose 300 mg/kg. The conditions noted are these: in vivo.
A short description of series [9]: Cytotoxicity against human leukemia cells. To be noted: Leukemia cell. The class given is functional.
Series [10] relates to CCRF-CEM. Kind of series: Cytotoxicity against human CEM cells. The format is functional, cell-based.
Series [11] can be described thus: Cytotoxicity against human Molt 4/C8 cells. The format is functional, cell-based. To be noted: Molt4/C8.

For orientation: IC50 means the concentration needed to halve the response being measured. Read a high IC50 as a need for much substance. In general, MIC refers to the smallest concentration in the dilution series that meets the test's criterion for growth inhibition. Low values mean inhibition by little substance, high ones a need for much substance. As usually defined, the GI50 is the concentration at which growth is held to half of that of the control. For `O=C(/C=C/C(=O)N1C/C(=C\c2ccccc2)C(=O)/C(=C/c2ccccc2)C1)Nc1ccc(Cl)cc1`, the IC50 in series [1] was 7800 nM; in series [10], 840 nM; in series [11], 1800 nM. Further, the MIC in series [2], in [3], in [4], in [6] and in series [7] was > 50 µg/mL throughout. The figures for the GI50 in [5] and in series [9] were 1150 nM and 589 nM, respectively. Moreover, the Activity entry in [8] is “Non-toxic”.
Regarding `COc1ccc(NC(=O)/C=C/C(=O)N2C/C(=C\c3ccccc3)C(=O)/C(=C/c3ccccc3)C2)cc1`, the concentration for half-maximal inhibition (IC50) in series [1] is 6800 nM; in series [10] it was 510 nM; in series [11], 1100 nM. In addition, the MIC in series [2], in [3], in series [4], in series [6] and in series [7] was > 50 µg/mL each time. Also, the GI50 in [5] came out at 759 nM; in [9], 105 nM. Also, the Activity result in series [8] is “Non-toxic”.
Consider `N[C@@H](Cc1ccc(N(CCCl)CCCl)cc1)C(=O)O` [MELPHALAN], for which the GI50 came out at 50100 nM in series [5] and 3980 nM in [9].
Consider `CC(=O)c1ccc(NC(=O)/C=C/C(=O)N2C/C(=C\c3ccccc3)C(=O)/C(=C/c3ccccc3)C2)cc1`, for which the IC50 in [1] stood at 5500 nM; in series [10], 1700 nM; in series [11] it was 1400 nM. For the same compound, the MIC in series [2], in series [3], in series [4], in series [6] and in series [7] was > 50 µg/mL in each case. For the same compound, the Activity entry in [8] is recorded as “Non-toxic”.
In the case of `Cc1cccc(C)c1NC(=O)/C=C/C(=O)N1C/C(=C\c2ccc([N+](=O)[O-])cc2)C(=O)/C(=C/c2ccc([N+](=O)[O-])cc2)C1`, the IC50 was determined as 690 nM in series [1], 230 nM in series [10] and 210 nM in series [11]. Moreover, the MIC in series [2], in [3], in [4], in series [6] and in [7] was > 50 µg/mL throughout. Further, the Activity entry in [8] is recorded as “Non-toxic”.
`O=C(/C=C/C(=O)N1C/C(=C\c2ccc([N+](=O)[O-])cc2)C(=O)/C(=C/c2ccc([N+](=O)[O-])cc2)C1)Nc1ccccc1`: the IC50 in series [1] is 1800 nM; in series [10] it was 370 nM; in [11] it was 360 nM. Moreover, the MIC in series [2], in [3], in series [4], in series [6] and in [7] was > 50 µg/mL in each case. For the same compound, the Activity result in series [8] is recorded as “Non-toxic”.
On to `Cc1ccc(NC(=O)/C=C/C(=O)N2C/C(=C\c3ccc([N+](=O)[O-])cc3)C(=O)/C(=C/c3ccc([N+](=O)[O-])cc3)C2)cc1C`, for which the IC50 is 4900 nM in [1], 700 nM in series [10] and 660 nM in series [11]. Further, the MIC in series [2], in series [3], in series [4], in series [6] and in [7] was > 50 µg/mL each time. Further, the Activity result in series [8] is “Non-toxic”.
For the compound `COc1ccc(NC(=O)/C=C/C(=O)N2C/C(=C\c3ccc([N+](=O)[O-])cc3)C(=O)/C(=C/c3ccc([N+](=O)[O-])cc3)C2)cc1`, the values for the IC50 in [1], in [10] and in [11] were 2900 nM, 760 nM and 940 nM, respectively. For the same compound, the MIC in [2], in [3], in [4], in series [6] and in series [7] was > 50 µg/mL throughout. In series [8], the Activity entry is recorded as “Non-toxic”.
As to `O=C(/C=C/C(=O)N1C/C(=C\c2ccc([N+](=O)[O-])cc2)C(=O)/C(=C/c2ccc([N+](=O)[O-])cc2)C1)Nc1ccc([N+](=O)[O-])cc1`, the IC50 in series [1] amounted to 1000 nM; in series [10], 410 nM; in series [11], 430 nM. Also, the minimal inhibitory concentration (MIC) in series [2], in [3], in series [4], in [6] and in [7] was > 50 µg/mL in each case. Moreover, in [8], the Activity entry is “Non-toxic”.
As for `CC(=O)c1ccc(NC(=O)/C=C/C(=O)N2C/C(=C\c3ccc([N+](=O)[O-])cc3)C(=O)/C(=C/c3ccc([N+](=O)[O-])cc3)C2)cc1`, the results for the IC50 in series [1], in series [10] and in [11] were 1400 nM, 360 nM and 390 nM, respectively. Moreover, the MIC in series [2], in series [3], in series [4], in [6] and in [7] was > 50 µg/mL each time. Also, the Activity entry in series [8] is on record as “Non-toxic”.
As to `O=C(/C=C/C(=O)N1C/C(=C\c2ccc([N+](=O)[O-])cc2)C(=O)/C(=C/c2ccc([N+](=O)[O-])cc2)C1)Nc1ccc(Cl)cc1`, the IC50 came out at 3600 nM in series [1], 810 nM in [10] and 1200 nM in series [11]. In addition, the minimum inhibitory concentration (MIC) in series [2], in series [3], in series [4], in [6] and in [7] was > 50 µg/mL in each case. In series [8], the Activity entry is “Non-toxic”.
Regarding `O=c1[nH]cc(F)c(=O)[nH]1` [FLUOROURACIL], the GI50 was 5750 nM in series [5] and 52500 nM in series [9].
As for `C[C@@H](c1ncncc1F)[C@](O)(Cn1cncn1)c1ccc(F)cc1F` [VORICONAZOLE], the MIC in [2], in series [3], in [4], in series [6] and in series [7] was ≤ 0.25 µg/mL in each case.
As to `Cc1cccc(C)c1NC(=O)/C=C/C(=O)N1C/C(=C\c2ccccc2)C(=O)/C(=C/c2ccccc2)C1`, the half-inhibitory concentration (IC50) came to 22000 nM in [1], 7400 nM in series [10] and 6600 nM in [11]. In addition, the MIC in series [2], in [3], in [4], in series [6] and in [7] was > 50 µg/mL in each case. The Activity result in series [8] was “Non-toxic”.
For the compound `O=C(/C=C/C(=O)N1C/C(=C\c2ccccc2)C(=O)/C(=C/c2ccccc2)C1)Nc1ccccc1`, the IC50 in series [1] came out at 3600 nM; in [10] it was 1100 nM; in [11], 520 nM. For the same compound, the minimum inhibitory concentration (MIC) in [2], in series [3], in series [4], in series [6] and in series [7] was > 50 µg/mL in each case. The Activity entry in [8] is “Non-toxic”.
For the compound `Cc1ccc(NC(=O)/C=C/C(=O)N2C/C(=C\c3ccccc3)C(=O)/C(=C/c3ccccc3)C2)cc1C`, the figures for the IC50 in [1], in [10] and in series [11] were 31000 nM, 7100 nM and 7900 nM, respectively. Further, the MIC in [2], in series [3], in series [4], in series [6] and in [7] was > 50 µg/mL each time. Moreover, the Activity result in [8] is listed as “Non-toxic”.
Regarding `O=C(/C=C/C(=O)N1C/C(=C\c2ccccc2)C(=O)/C(=C/c2ccccc2)C1)Nc1ccc([N+](=O)[O-])cc1`, the IC50 in [1] amounted to 40000 nM; in [10], 40000 nM; in series [11] it was 31000 nM. For the same compound, the minimum inhibitory concentration (MIC) in series [2], in series [3], in [4], in series [6] and in series [7] was > 50 µg/mL in each case. In addition, the Activity result in [8] is “Non-toxic”.
